Data taken from patent US20210032257A1, “(E)-1-(4-(DIMETHYLAMINO)BUT-2-ENOYL)PYRROLIDIN-3-YL 4-((3-ISOPROPYL-5-METHYLPYRAZOLO[1,5-A]PYRIMIDIN-7-YL)AMINO)PIPERIDINE-1-CARBOXYLATE FOR INHIBITING CDK7” (Eli Lilly and Company, priority 2017, published 2021).

Columns and labels:
[1] = test system: phospho-carboxyl terminal domain (Ser2) in HCT116 cells; assay: p-CTD (S2) cell based Acumen assay; conditions: Homo sapiens, HCT-116, 4 hours, read-out: relative IC50 for phosphoCTD (S2)
Protocol: (§1) HCT116 cells (ATCC CCL-247) are cultured in McCoy's 5A Medium Modified media supplemented with 10% FBS, 1% NaPyr and 1% Pen/Strep and plated (prior to becoming 70% confluent) in 96-well flat-bottom plates at a density of 5,000 cells per well in 100 μL volume. The cells are then incubated overnight in a cell culture incubator (5% CO2, 95% Relative Humidity (RH) and 37° C.) and allowed to attach to the plate. The following morning the cells are dosed with compounds. Compound inhibitors are first solubilized at 60 μM in culture medium containing 0.6% DMSO. Subsequently compound serial dilutions (1:3) are prepared over a 6 μM to 0.00 μM range. […]
The following day cells are washed three times with PBS (100 μL/well) and incubated with 50 μL/well of secondary antibody (1:2000 dilution, Goat anti-rabbit IgM ALEXA FLUOR™ 488) in PBS for 1 hour at RT. […] Plates are analyzed on Acumen on FL2 (mean intensity), and FL3 (total intensity). Fluorescence plates are scanned with ACUMEN EXPLORER™ [Laser-scanning fluorescence microplate cytometer manufactured by TTP LABTECH LTD] to measure anti-phospho-carboxyl terminal domain at Serine 2 (pCTD). […]
The IC50 is determined by curve fitting to a four parameter logistic for each output using GENE DATA™.

[2] = test system: phospho-carboxyl terminal domain (Ser5) in HCT116 cells; assay: p-CTD (S5) cell based Acumen assay; conditions: Homo sapiens, HCT-116, 4 hours, read-out: Relative IC50 for pCTD Ser5
Protocol: as §1, with “are” for “are then”, “following morning,” for “following morning”, “are” for “are first”, “a 60” for “a 6”, “to 0.003” for “to 0.00”
The following day cells are washed three times with PBS (100 μL/well) and incubated with 50 μL/well of secondary antibody (1:2000 dilution, Goat anti-rabbit IgM ALEXA FLUOR™ 488) in PBS for 1 hour at room temperature. […] Plates are analyzed on Acumen on FL2 (mean intensity), and FL3 (total intensity). Fluorescence plates are scanned with ACUMEN EXPLORER™ [Laser-scanning fluorescence microplate cytometer manufactured by TTP LABTECH LTD] to measure anti-phospho-carboxyl terminal domain at Serine 5 (pCTD). […] The IC50 is determined by curve fitting to a four parameter logistic for each output using GENE DATA™.

[3] = test system: cMyc in HCT116 cells; assay: cMyc cell based Acumen assay; conditions: Homo sapiens, HCT-116, 4 hours, read-out: Relative IC50 for cMyc
[4] = molecular target: CDK7/CyclinH/Mat1 (Homo sapiens, UniProt P50613); assay: Biochemical assay for inhibition of CDK7/CyclinH/MAT1 (radiolabel filter binding)
Protocol: The purpose of this assay is to measure the ability of a compound of the invention to inhibit CDK7/CyclinH/Mat1 complex kinase activity.
The IC50 activity of the inhibitor is determined using radiolabel filter binding (FB) assays using the purified human recombinant enzyme in the presence of ATP//[3^3P]ATP and peptide substrate. The ATP concentrations chosen are at or near the enzyme Km for ATP.
Reactions are carried out in 96 well polystyrene plates in a final volume of 25 μL per well. 5 μL of test compound in 20% DMSO, 10 μL of substrate solution (ATP/33PATP and CDK7/9 tide) and 10 μL of enzyme solution are mixed. […] The enzyme solution is prepared for a final concentration of 1 nM CDK7/CyclinH/Mat1 enzyme [Proqinase 0366-0360-4 Lot 002)] diluted in kinase buffer. Test compounds are serially diluted 1:3 in 20% DMSO to create a 10 point curve at a starting concentration of 20 μM. 20% DMSO buffer alone without test compound is employed as high control (full activity in the absence of any inhibitor), 500 mM EDTA is used to determine the level of background in the absence of enzyme activity (low control). After mixing 5 μL of compounds with 10 μL of enzyme solution the plate is incubated for 0 or 180 minutes at 22° C. After that time the reaction is initiated by the addition of 10 μL substrate solution and incubated for 50 minutes at 22° C. The reaction is terminated by the addition of 80 μL of cold 10% ortophosphoric solution. The Filter Plates (opaque, non-sterile filter plates) are prewashed with 10 μL of 10% orthophosphoric solution to each well. 100 μL of the mixture are transferred to a phosphocellulose filter and incubated at room temperature for 45 minutes. Filter plates are washed with 200 μL 0.5% orthophosphoric acid 3 times on a filter plate processor. Incorporation of 33Pi (counting of “cpm”) is determined by adding 80 μL of MICROSCINT™ to each well and read on a counter after an hour. Data is processed through a [sequence] […] ® tool. Data are analyzed using a 4-parameter nonlinear logistic equation (four-parameter logistic concentration-response curve): Y=bot+[(top-bot)/1+(x/IC50)slope] where Y=% inhibition, X=concentration yielding y % inhibition, Bottom=minimum value of y attained by curve, Top=maximum value of y attained by curve and Slope=steepness of curve at IC50. % Inh=[(median Max−x/median Max−median Min)]·100
IC50: concentration of compound that reduces a given response (ligand binding, enzyme response) by 50%.

[5] = molecular target: CDK9/cyclinT1 (Homo sapiens, UniProt P50750); assay: Assay for inhibition of CDK9/CyclinT1 kinase activity (radiolabel filter binding)
CDK9/cyclinT1, sequence (P50750 whole entry): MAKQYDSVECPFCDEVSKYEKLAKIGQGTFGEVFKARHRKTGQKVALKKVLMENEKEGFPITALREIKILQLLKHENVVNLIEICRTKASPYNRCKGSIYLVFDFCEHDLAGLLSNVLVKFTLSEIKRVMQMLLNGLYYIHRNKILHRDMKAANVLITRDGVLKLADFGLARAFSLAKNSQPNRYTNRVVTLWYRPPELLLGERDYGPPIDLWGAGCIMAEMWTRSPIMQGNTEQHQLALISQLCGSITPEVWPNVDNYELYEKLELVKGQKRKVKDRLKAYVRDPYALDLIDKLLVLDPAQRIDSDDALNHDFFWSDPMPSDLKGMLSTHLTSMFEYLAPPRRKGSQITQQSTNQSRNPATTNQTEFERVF
CDK9/cyclinT1, sequence (O60563 whole entry partner): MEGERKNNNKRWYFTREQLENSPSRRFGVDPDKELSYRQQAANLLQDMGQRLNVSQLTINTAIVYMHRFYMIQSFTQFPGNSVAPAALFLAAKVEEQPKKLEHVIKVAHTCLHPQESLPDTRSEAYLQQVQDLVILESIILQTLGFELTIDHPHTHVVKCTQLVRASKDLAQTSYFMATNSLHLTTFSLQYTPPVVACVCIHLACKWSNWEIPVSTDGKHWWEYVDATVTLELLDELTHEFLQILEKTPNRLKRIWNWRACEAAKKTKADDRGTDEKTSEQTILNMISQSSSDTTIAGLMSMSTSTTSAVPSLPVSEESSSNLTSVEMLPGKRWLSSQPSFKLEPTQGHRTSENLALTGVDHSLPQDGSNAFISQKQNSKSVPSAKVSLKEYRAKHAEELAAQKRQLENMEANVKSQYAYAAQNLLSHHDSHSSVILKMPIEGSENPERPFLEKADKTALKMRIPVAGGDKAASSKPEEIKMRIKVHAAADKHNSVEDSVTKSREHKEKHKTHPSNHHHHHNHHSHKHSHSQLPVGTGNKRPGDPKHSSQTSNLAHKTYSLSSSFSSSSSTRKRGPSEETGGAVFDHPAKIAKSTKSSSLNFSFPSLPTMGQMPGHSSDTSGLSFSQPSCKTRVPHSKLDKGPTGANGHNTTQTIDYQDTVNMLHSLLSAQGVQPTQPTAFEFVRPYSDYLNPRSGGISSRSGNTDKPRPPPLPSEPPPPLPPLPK
Protocol: The IC50 determination for CDK7 and CDK9 are determined as follows.
The IC50 activity of the inhibitor is determined using radiolabel filter binding (FB) assays using the purified human recombinant enzyme in the presence of ATP and peptide substrate. The ATP concentrations chosen are at or near the enzyme Km for ATP. Reactions are carried out in 96 well polystyrene plates in a final volume of 25 μL per well. 5 μL of test compound in 20% DMSO, 10 μL of substrate solution (ATP//[^33P]ATP and CDK7/9 tide) and 10 μL of enzyme solution are mixed. […] The enzyme solution is prepared for a final concentration of 7.5 nM CDK9/cyclinT1 enzyme [Proqinase 0371-0345-1 (Lot 004)] diluted in kinase buffer. Test compounds are serially diluted 1:3 in 20% DMSO to create a 10 point curve at a starting concentration of 2 μM. 20% DMSO buffer alone without test compound is employed as high control (full activity in the absence of any inhibitor), 500 mM EDTA is used to determine the level of background in the absence of enzyme activity (low control). After mixing 5 μL of compounds with 10 μL of enzyme solution the plate is incubated for 0 or 180 minutes at 22° C. After that time the reaction is initiated by the addition of 10 μL substrate solution and incubated for 60 minutes at 22° C. […] 80 μL of MICROSCINT™ is added to each well and read on a scintillation counter after an hour. […]

CDK7/CyclinH/Mat1, sequence (P50613 whole entry): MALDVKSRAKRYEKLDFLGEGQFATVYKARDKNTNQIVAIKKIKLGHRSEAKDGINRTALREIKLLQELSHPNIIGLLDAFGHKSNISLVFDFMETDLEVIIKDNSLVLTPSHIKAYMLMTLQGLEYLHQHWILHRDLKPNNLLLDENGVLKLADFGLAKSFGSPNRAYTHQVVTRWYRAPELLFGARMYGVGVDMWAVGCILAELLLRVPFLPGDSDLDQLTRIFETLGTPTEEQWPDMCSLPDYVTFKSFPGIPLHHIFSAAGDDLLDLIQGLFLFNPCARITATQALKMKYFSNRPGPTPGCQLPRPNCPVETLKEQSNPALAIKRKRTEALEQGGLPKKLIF
CDK7/CyclinH/Mat1, sequence (P51946 whole entry partner): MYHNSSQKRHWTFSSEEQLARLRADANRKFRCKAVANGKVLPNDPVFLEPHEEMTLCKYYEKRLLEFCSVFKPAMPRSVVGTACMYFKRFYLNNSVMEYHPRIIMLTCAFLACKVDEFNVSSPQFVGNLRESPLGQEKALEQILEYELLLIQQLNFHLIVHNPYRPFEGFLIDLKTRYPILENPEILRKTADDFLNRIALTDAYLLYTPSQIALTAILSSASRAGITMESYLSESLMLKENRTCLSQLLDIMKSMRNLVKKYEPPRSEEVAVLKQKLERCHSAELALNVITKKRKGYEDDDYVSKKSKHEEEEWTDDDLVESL
CDK7/CyclinH/Mat1, sequence (P51948 whole entry partner): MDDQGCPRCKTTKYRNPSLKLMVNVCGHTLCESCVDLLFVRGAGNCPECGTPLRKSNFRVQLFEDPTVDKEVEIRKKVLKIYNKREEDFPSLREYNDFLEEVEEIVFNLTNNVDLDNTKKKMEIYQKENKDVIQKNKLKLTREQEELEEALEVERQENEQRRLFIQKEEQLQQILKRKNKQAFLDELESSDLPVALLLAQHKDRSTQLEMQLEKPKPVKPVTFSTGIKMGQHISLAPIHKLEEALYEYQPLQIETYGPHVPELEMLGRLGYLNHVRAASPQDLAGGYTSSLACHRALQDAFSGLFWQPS

With Cc1cc(NC2CCN(C(=O)O[C@@H]3CCN(C(=O)/C=C/CN(C)C)C3)CC2)n2ncc(C(C)C)c2n1 [Example 3, [(3R)-1-[(E)-4-(dimethylamino)but-2-enoyl]pyrrolidin-3-yl] 4-[(3-isopropyl-5-methyl-pyrazolo[1,5-a]pyrimidin-7-yl)amino]piperidine-1-carboxylate] the IC50 [1] was 3.52 µM, the IC50 [2] was 198 nM and the IC50 [3] was 57.3 nM. It also gave an IC50 ([4]; IC50 in CDK7, 3 hours of preincubation of CDK7 enzyme) of 5.06 nM, an IC50 ([4]; IC50 in CDK7, without preincubation) of 48.7 nM and an IC50 [5] of 2450 nM.
